Columns and labels:
Experiment in all cases: MIC, CLSI broth microdilution
Assay type in all cases: cell-based
[1] = test system: A. baumannii AABA1009 (Fluoroquinolone-resistant); conditions: Table 2
How it was run: (§1)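 CLSI M7-A7 broth microdilution; 2-fold serial dilutions in Mueller Hinton Broth, 1:1 with inoculum; final 5×10^5 CFU/mL; 35° C., 20 h, ambient air. QC strains E. coli ATCC 25922, P. aeruginosa ATCC 27853, S. aureus ATCC 29213.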

[2] = test system: A. baumannii AABA1065 (Fluoroquinolone-susceptible); conditions: Table 2
How it was run: as §1

[3] = test system: E. coli AECO001 (Fluoroquinolone susceptible, ATCC25922); conditions: Table 2, 35° C., 20 hours
How it was run: as §1

[4] = test system: E. coli AECO066 (Fluoroquinolone-resistant); conditions: Table 2
How it was run: as §1

[5] = test system: P. aeruginosa APAE001 (Fluoroquinolone-susceptible, ATCC27853); conditions: Table 2
How it was run: as §1

[6] = test system: P. aeruginosa APAE054 (Fluoroquinolone-resistant); conditions: Table 2
How it was run: as §1

[7] = test system: S. aureus ASAU001 (Fluoroquinolone-susceptible, ATCC29213); conditions: Table 2
How it was run: as §1

[8] = test system: S. aureus ASAU1031 (Fluoroquinolone-resistant); conditions: Table 2
How it was run: as §1

[9] = test system: S. pneumoniae ASPN001 (Fluoroquinolone-susceptible, ATCC49619); conditions: Table 2
How it was run: as §1

[10] = test system: S. pneumoniae ASPN1027 (Fluoroquinolone-resistant); conditions: Table 2
How it was run: as §1

| Structure (SMILES) | MIC AABA 1009 [1] | MIC AABA 1065 [2] | MIC AECO 001 [3] | MIC AECO 066 [4] | MIC APAE 001 [5] | MIC APAE 054 [6] | MIC ASAU 001 [7] | MIC ASAU 1031 [8] | MIC ASPN 001 [9] | MIC ASPN 1027 [10] |
| --- | --- | --- | --- | --- | --- | --- | --- | --- | --- | --- |
| O=C(O)c1cn(C2CC2)c2c3c(c(F)cc2c1=O)N1C(=O)CC[C@H]1CC=C3 [23/12, (7aS)-4-Cyclopropyl-12-fluoro-1,10-dioxo-4,7,7a,8,9,10-hexahydro-1H-pyrrolo[1′,2′:1,7]azepino[2,3-h]quino-line-2-carboxylic acid] | C (MIC's of greater than 8.0 μg/mL = C) | C (MIC's of greater than 8.0 μg/mL = C) | C (MIC's of greater than 8.0 μg/mL = C) | C (MIC's of greater than 8.0 μg/mL = C) | C (MIC's of greater than 8.0 μg/mL = C) | C (MIC's of greater than 8.0 μg/mL = C) | B (MIC's of greater than 1.0 μg/mL to 8.0 μg/mL = B) | C (MIC's of greater than 8.0 μg/mL = C) | C (MIC's of greater than 8.0 μg/mL = C) | C (MIC's of greater than 8.0 μg/mL = C) |
| O=C(O)c1cn(C2CC2)c2c3c(c(F)cc2c1=O)N1C(=O)CC[C@H]1CCC3 [23/14, (7aR)-4-Cyclopropyl-12-fluoro-1,10-dioxo-4,5,6,7,7a,8,9,10-octahydro-1H-pyrrolo[1′,2′:1,7]azepino[2,3-h]quinoline-2-carboxylic acid] | C (MIC's of greater than 8.0 μg/mL = C) | C (MIC's of greater than 8.0 μg/mL = C) | C (MIC's of greater than 8.0 μg/mL = C) | C (MIC's of greater than 8.0 μg/mL = C) | C (MIC's of greater than 8.0 μg/mL = C) | C (MIC's of greater than 8.0 μg/mL = C) | C (MIC's of greater than 8.0 μg/mL = C) | C (MIC's of greater than 8.0 μg/mL = C) | C (MIC's of greater than 8.0 μg/mL = C) | C (MIC's of greater than 8.0 μg/mL = C) |
| N[C@H]1C[C@H]2CC=Cc3c(ccc4c(=O)c(C(=O)O)cn(C5CC5)c34)N2C1 [25/14, (7aR,9S)-9-amino-4-cyclopropyl-1-oxo-4,7,7a,8,9,10-hexahydro-1H-pyrrolo[1′,2′:1,7]azepino[2,3-h]quinoline-2-carboxylic Acid] | C (MIC's of greater than 8.0 μg/mL = C) | A (MIC's of 1.0 μg/mL or less = A) | A (MIC's of 1.0 μg/mL or less = A) | C (MIC's of greater than 8.0 μg/mL = C) | B (MIC's of greater than 1.0 μg/mL to 8.0 μg/mL = B) | C (MIC's of greater than 8.0 μg/mL = C) | A (MIC's of 1.0 μg/mL or less = A) | C (MIC's of greater than 8.0 μg/mL = C) | A (MIC's of 1.0 μg/mL or less = A) | B (MIC's of greater than 1.0 μg/mL to 8.0 μg/mL = B) |
| N[C@@H]1CCN2c3c(F)cc4c(=O)c(C(=O)O)cn(C5CC5)c4c3C=NC[C@H]12.O=C(O)C(F)(F)F [26/16, (3aR,4R)-4-Amino-13-cyclopropyl-8-fluoro-10-oxo-3a,4,5,6,10,13-hexahydro-3H-pyrrolo[2′,1′:3,4][1,4]diazepino[5,6-h]quinoline-11-carboxylic acid trifluoroacetate] | C (MIC's of greater than 8.0 μg/mL = C) | B (MIC's of greater than 1.0 μg/mL to 8.0 μg/mL = B) | A (MIC's of 1.0 μg/mL or less = A) | C (MIC's of greater than 8.0 μg/mL = C) | B (MIC's of greater than 1.0 μg/mL to 8.0 μg/mL = B) | C (MIC's of greater than 8.0 μg/mL = C) | B (MIC's of greater than 1.0 μg/mL to 8.0 μg/mL = B) | C (MIC's of greater than 8.0 μg/mL = C) | B (MIC's of greater than 1.0 μg/mL to 8.0 μg/mL = B) | C (MIC's of greater than 8.0 μg/mL = C) |
| N[C@@H]1CCN2c3c(F)cc4c(=O)c(C(=O)O)cn(C5CC5)c4c3CNC[C@H]12.O=C(O)C(F)(F)F.O=C(O)C(F)(F)F [26/17, (3aR,4R)-4-Amino-13-cyclopropyl-8-fluoro-10-oxo-2,3,3a,4,5,6,10,13-octahydro-1H-pyrrolo[2′,1′:3,4][1,4]diazepino[5,6-h]quinoline-11-carboxylic acid bis(trifluoroacetate)] | C (MIC's of greater than 8.0 μg/mL = C) | B (MIC's of greater than 1.0 μg/mL to 8.0 μg/mL = B) | A (MIC's of 1.0 μg/mL or less = A) | C (MIC's of greater than 8.0 μg/mL = C) | B (MIC's of greater than 1.0 μg/mL to 8.0 μg/mL = B) | C (MIC's of greater than 8.0 μg/mL = C) | B (MIC's of greater than 1.0 μg/mL to 8.0 μg/mL = B) | C (MIC's of greater than 8.0 μg/mL = C) | B (MIC's of greater than 1.0 μg/mL to 8.0 μg/mL = B) | C (MIC's of greater than 8.0 μg/mL = C) |
| O=C(O)c1cn(C2CC2)c2c3c(c(F)cc2c1=O)N1CCCC1CC=C3 (stereo not drawn) [27/5, 4-Cyclopropyl-12-fluoro-1-oxo-4,7,7a,8,9,10-hexahydro-1H-pyrrolo[1′,2′:1,7]azepino[2,3-h]quinoline-2-carboxylic acid] | C (MIC's of greater than 8.0 μg/mL = C) | B (MIC's of greater than 1.0 μg/mL to 8.0 μg/mL = B) | A (MIC's of 1.0 μg/mL or less = A) | C (MIC's of greater than 8.0 μg/mL = C) | C (MIC's of greater than 8.0 μg/mL = C) | C (MIC's of greater than 8.0 μg/mL = C) | A (MIC's of 1.0 μg/mL or less = A) | B (MIC's of greater than 1.0 μg/mL to 8.0 μg/mL = B) | A (MIC's of 1.0 μg/mL or less = A) | C (MIC's of greater than 8.0 μg/mL = C) |
| O=C(O)c1cn(C2CC2)c2c3c(c(F)cc2c1=O)N1CCCC1CCC3 (stereo not drawn) [27/7, 4-Cyclopropyl-12-fluoro-1-oxo-4,5,6,7,7a,8,9,10-octahydro-1H-pyrrolo[1′,2′:1,7]azepino[2,3-h]quinoline-2-carboxylic acid] | C (MIC's of greater than 8.0 μg/mL = C) | C (MIC's of greater than 8.0 μg/mL = C) | B (MIC's of greater than 1.0 μg/mL to 8.0 μg/mL = B) | C (MIC's of greater than 8.0 μg/mL = C) | C (MIC's of greater than 8.0 μg/mL = C) | C (MIC's of greater than 8.0 μg/mL = C) | A (MIC's of 1.0 μg/mL or less = A) | B (MIC's of greater than 1.0 μg/mL to 8.0 μg/mL = B) | B (MIC's of greater than 1.0 μg/mL to 8.0 μg/mL = B) | C (MIC's of greater than 8.0 μg/mL = C) |
| O=C(O)c1cn(C2CC2)c2c3c(c(F)cc2c1=O)N1CCCC1CC(O)C3O (stereo not drawn) [27/9, 4-Cyclopropyl-12-fluoro-5,6-dihydroxy-1-oxo-4,5,6,7,7a,8,9,10-octahydro-1H-pyrrolo[1′,2′:1,7]azepino[2,3-h]quinoline-2-carboxylic acid] | C (MIC's of greater than 8.0 μg/mL = C) | B (MIC's of greater than 1.0 μg/mL to 8.0 μg/mL = B) | B (MIC's of greater than 1.0 μg/mL to 8.0 μg/mL = B) | C (MIC's of greater than 8.0 μg/mL = C) | C (MIC's of greater than 8.0 μg/mL = C) | C (MIC's of greater than 8.0 μg/mL = C) | B (MIC's of greater than 1.0 μg/mL to 8.0 μg/mL = B) | C (MIC's of greater than 8.0 μg/mL = C) | C (MIC's of greater than 8.0 μg/mL = C) | C (MIC's of greater than 8.0 μg/mL = C) |
| O=C1Cc2c(c(F)cc3c(=O)c(C(=O)O)cn(C4CC4)c23)N2CCCC2C1 (stereo not drawn) [27/10, 4-Cyclopropyl-12-fluoro-1,6-dioxo-4,5,6,7,7a,8,9,10-octahydro-1H-pyrrolo[1′,2′:1,7]azepino[2,3-h]quinoline-2-carboxylic acid] | C (MIC's of greater than 8.0 μg/mL = C) | B (MIC's of greater than 1.0 μg/mL to 8.0 μg/mL = B) | B (MIC's of greater than 1.0 μg/mL to 8.0 μg/mL = B) | C (MIC's of greater than 8.0 μg/mL = C) | C (MIC's of greater than 8.0 μg/mL = C) | C (MIC's of greater than 8.0 μg/mL = C) | B (MIC's of greater than 1.0 μg/mL to 8.0 μg/mL = B) | C (MIC's of greater than 8.0 μg/mL = C) | C (MIC's of greater than 8.0 μg/mL = C) | C (MIC's of greater than 8.0 μg/mL = C) |
